Data as given in US7189720B2 (H. Lundbeck A/S, priority 1999, dated 2007).
Where two headings read alike, the source gives them in different places.

Tests used:
human Y5 receptor [1] = biological target: T1, human Y5 receptor (Homo sapiens, UniProt Q15761); assay: Radioligand binding to membranes, cloned human Y5 receptor
T1 construct: expressed in transfected cells; host or cells: mouse fibroblast LM(tk-) cells, e.g. L-hY5-7 (ATCC CRL-11995)
T1 sequence (Q15761 1-445): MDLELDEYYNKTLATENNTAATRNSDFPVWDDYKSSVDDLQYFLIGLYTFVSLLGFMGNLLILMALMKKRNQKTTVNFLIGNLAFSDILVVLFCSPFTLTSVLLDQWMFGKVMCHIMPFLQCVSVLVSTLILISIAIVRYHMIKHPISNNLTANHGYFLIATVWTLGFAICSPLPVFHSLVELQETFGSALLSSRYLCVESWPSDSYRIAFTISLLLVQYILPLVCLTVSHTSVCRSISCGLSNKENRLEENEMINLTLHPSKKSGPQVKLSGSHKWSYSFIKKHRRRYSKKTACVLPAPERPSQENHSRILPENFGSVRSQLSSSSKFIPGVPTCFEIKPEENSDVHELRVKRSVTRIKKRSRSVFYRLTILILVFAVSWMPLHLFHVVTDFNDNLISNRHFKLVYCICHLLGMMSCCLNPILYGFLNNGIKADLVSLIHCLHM
Protocol: (§1) Binding of the compounds of the present invention to human Y1, Y2, Y4, and Y5 receptors was evaluated using stably transfected 293 or LM(tk-) cells as described above.
(§2) Membranes were harvested from COS-7 cells 48 hours after transient transfection. Adherent cells were washed twice in ice-cold phosphate buffered saline (138 mM NaCl, 8.1 mM Na2HPO4, 2.5 mM KCl, 1.2 mM KH2PO4, 0.9 mM CaCl2, 0.5 mM MgCl2, pH 7.4) and lysed by sonication in ice-cold sonication buffer (20 mM Tris-HCl, 5 mM EDTA, pH 7.7). Large particles and debris were cleared by low speed centrifugation (200×g, 5 min, 4° C.). Membranes were collected from the supernatant fraction by centrifugation (32,000×g, 18 min, 4° C.), washed with ice-cold hypotonic buffer, and collected again by centrifugation (32,000×g, 18 min, 4° C.). The final membrane pellet was resuspended by sonication into a small volume of ice-cold binding buffer (˜1 ml for every 5 plates: 10 mM NaCl, 20 mM HEPES, 0.22 mM KH2PO4, 1.26 mM CaCl2, 0.81 mM MgSO4, pH 7.4). Protein concentration was measured by the Bradford method (Bradford, 1976) using Bio-Rad Reagent, with bovine serum albumin as a standard. Membranes were held on ice for up to one hour and used fresh, or flash-frozen and stored in liquid nitrogen.
(§3) Membranes were prepared similarly from 293, LM(tk-), and NIH-3T3 cells.
(§4) Membrane suspensions were diluted in binding buffer supplemented with 0.1% bovine serum albumin to yield an optimal membrane protein concentration so that ^125I-PYY (or alternative radioligand such as ^125I-NPY, ^125I-NYY3-36, or ^125I-[Leu^31Pro^34]PYY) bound by membranes in the assay was less than 10% of ^125I-PYY (or alternative radioligand) delivered to the sample (100,000 dpm/sample=0.08 nM for competition binding assays). ^125I-PYY (or alternative radioligand) and peptide competitors were also diluted to desired concentrations in supplemented binding buffer. Individual samples were then prepared in 96-well polypropylene microtiter plates by mixing ^125I-PYY (25 μL) (or alternative radioligand), competing peptides or supplemented binding buffer (25 μL), and finally, membrane suspensions (200 μL). Samples were incubated in a 30° C. water bath with constant shaking for 120 min. Incubations were terminated by filtration over Whatman GF/C filters (pre-coated with 1% polyethyleneimine and air-dried before use), followed by washing with 5 mL of ice-cold binding buffer. Filter-trapped membranes were impregnated with MeltiLex solid scintillant (Wallac, Turku, Finland) and counted for ^125I in a Wallac Beta-Plate Reader. Alternatively, incubations were carried out in GF/C filter plates (pre-coated with 1% polyethyleneimine and air-dried before use), followed by vacuum filtration and three washes of 300 μL of ice-cold binding buffer. 50 μL of UltimaGold (Packard) scintillant were added and counted for ^125I, in a Wallac MicroBeta Trilux. Non-specific binding was defined by 300 nM human NPY for all receptors except the Y4 subtypes; 100 nM human PP was used for the human Y4 and 100 nM rat PP for the rat Y4.

human Y5 receptor [2] = biological target: T1, human Y5 receptor; assay: Functional assay: radioimmunoassay of cAMP in stably transfected cells; format: cell-based; conditions: Functional Antagonism Data, Table 7
Protocol: LM(tk-) cells stably transfected with the human Y5 receptor were routinely converted from an adherent monolayer to a viable suspension. Adherent cells were harvested with trypsin at the point of confluence, resuspended in a minimal volume of complete DMEM for a cell count, and further diluted to a concentration of 10^6 cells/ml in suspension media (10% bovine calf serum, 10% 10× Medium 199 (Gibco), 9 mM NaHCO3, 25 mM glucose, 2 mM L-glutamine, 100 units/ml penicillin/100 μg/ml streptomycin, and 0.05% methyl cellulose). The cell suspension was maintained in a shaking incubator at 37° C., 5% CO2 for 24 hours. Membranes harvested from cells grown in this manner may be stored as large, uniform batches in liquid nitrogen. Alternatively, cells may be returned to adherent cell culture in complete DMEM by distribution into 96-well microtiter plates coated with poly-D-lysine (0.01 mg/ml) followed by incubation at 37° C., 5% CO2 for 24 hours.
Stably transfected cells were seeded into 96-well microtiter plates and cultured until confluent. […] Cells were washed in […] buffered saline, or HBS (150 mM NaCl, 20 mM HEPES, 1 mM CaCl2, 5 mM KCl, 1 mM MgCl2, and 10 mM glucose) supplemented with 0.1% bovine serum albumin plus 5 mM theophylline and pre-equilibrated in the same solution for 20 min at 37° C. in 5% CO2. Cells were then incubated 5 min with 10 μM forskolin and various concentrations of receptor-selective ligands. The assay was terminated by the removal of HBS and acidification of the cells with 100 mM HCl. Intracellular cAMP was extracted and quantified with a modified version of a magnetic bead-based radioimmunoassay (Advanced Magnetics, Cambridge, Mass.). The final antigen/antibody complex was separated from free ^125I-cAMP by vacuum filtration through a PVDF filter in a microtiter plate (Millipore, Bedford, Mass.). Filters were punched and counted for ^125I, in a Packard gamma counter.

human Y1 receptor = biological target: T2, human Y1 receptor (Homo sapiens, UniProt P25929); assay: Radioligand binding to membranes, cloned human Y1 receptor; conditions: text b745; read-out: Ki (nM) NPY (Y1)
T2 construct: expressed in transfected cells; host or cells: human embryonic kidney 293 cells, e.g. 293-hY1-5 (ATCC CRL-12121)
T2 sequence (P25929 1-384): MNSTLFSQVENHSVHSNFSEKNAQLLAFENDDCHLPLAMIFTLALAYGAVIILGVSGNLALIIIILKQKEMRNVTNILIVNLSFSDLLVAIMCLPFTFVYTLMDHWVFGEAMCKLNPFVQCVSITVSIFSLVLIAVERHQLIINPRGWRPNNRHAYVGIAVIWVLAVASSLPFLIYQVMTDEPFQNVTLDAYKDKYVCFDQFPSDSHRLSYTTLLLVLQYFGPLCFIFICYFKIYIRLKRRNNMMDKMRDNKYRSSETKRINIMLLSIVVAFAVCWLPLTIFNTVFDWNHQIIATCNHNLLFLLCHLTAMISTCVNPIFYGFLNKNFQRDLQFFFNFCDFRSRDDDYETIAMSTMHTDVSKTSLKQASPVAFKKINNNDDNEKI
Protocol: as §1, §2, §3, §4

human Y4 receptor = biological target: T3, human Y4 receptor (Homo sapiens, UniProt P50391); assay: Radioligand binding to membranes, cloned human Y4 receptor; conditions: text b745; read-out: Ki (nM) NPY (Y4)
T3 construct: expressed in transfected cells; host or cells: mouse fibroblast LM(tk-) cells, e.g. L-hY4-3 (ATCC CRL-11779)
T3 sequence (P50391 whole entry): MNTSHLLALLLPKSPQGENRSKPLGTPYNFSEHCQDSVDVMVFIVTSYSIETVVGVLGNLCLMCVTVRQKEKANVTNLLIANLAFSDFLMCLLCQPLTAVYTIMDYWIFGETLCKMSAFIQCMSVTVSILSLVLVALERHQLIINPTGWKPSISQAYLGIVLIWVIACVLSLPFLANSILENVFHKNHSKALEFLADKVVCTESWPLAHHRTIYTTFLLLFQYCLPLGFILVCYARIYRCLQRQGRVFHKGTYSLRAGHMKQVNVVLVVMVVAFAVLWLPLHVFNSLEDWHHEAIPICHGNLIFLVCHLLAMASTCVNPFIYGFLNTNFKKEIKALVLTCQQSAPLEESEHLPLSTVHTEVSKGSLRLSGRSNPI
Protocol: as §1, §2, §3, §4

human Y2 receptor = biological target: T4, human Y2 receptor (Homo sapiens, UniProt P49146); assay: Radioligand binding to membranes, cloned human Y2 receptor
T4 sequence (P49146 1-381): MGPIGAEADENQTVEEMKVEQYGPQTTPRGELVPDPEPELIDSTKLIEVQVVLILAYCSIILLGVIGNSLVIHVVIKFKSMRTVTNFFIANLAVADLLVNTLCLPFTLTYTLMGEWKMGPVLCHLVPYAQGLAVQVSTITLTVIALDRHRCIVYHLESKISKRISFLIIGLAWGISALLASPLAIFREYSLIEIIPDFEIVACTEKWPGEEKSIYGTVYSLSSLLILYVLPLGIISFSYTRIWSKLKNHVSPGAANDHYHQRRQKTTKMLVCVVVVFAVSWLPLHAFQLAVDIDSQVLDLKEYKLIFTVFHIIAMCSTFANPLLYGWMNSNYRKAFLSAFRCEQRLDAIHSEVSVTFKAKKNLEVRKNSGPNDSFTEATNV
Protocol: as §1, §2, §3, §4

[3] = Table 6, read-out: Ki, nM hNPY-5

Row | SMILES | Kb (human Y5 receptor [2]) [nM] | Ki (human Y5 receptor [1]; [3]) [nM] | also measured
1 | CNc1nc(NCC2CCC(CNS(=O)(=O)c3cccc4ccccc34)CC2)nc(NC(C)C)n1 (stereo not drawn) [Example 1, N1-{[4-({[4-(Isopropylamino)-6-(methylamino)-1,3,5-triazin-2-yl]amino}methyl)cyclohexyl]methyl}-1-naphthalenesulfonamide] | 200 |  | Ki (human Y5 receptor [1]; Table 1, read-out: Ki (nM) hNPY-5): 13 nM
2 | CCNc1nc(NCC)nc(NCC2CCC(CNS(=O)(=O)c3cccs3)CC2)n1 (stereo not drawn) [Example 37, N2-[4-([4,6-di(ethylamino)-1,3,5-triazin-2-yl]aminomethyl)cyclohexyl]methyl-2-thiophenesulfonamide] | 158 |  | Ki (human Y5 receptor [1]; Table 2, read-out: Ki (nM) hNPY-5): 55 nM
3 | CC(C)Nc1nc(Cl)nc(NCC2CCC(CNS(=O)(=O)c3cccc4ccccc34)CC2)n1 (stereo not drawn) [Example 49, N1-{[4-({[4-chloro-6-(isopropylamino)-1,3,5-triazin-2-yl]amino}methyl)cyclohexyl]methyl}-1-naphthalenesulfonamide] | 1000 |  | Ki (human Y5 receptor [1]; Table 3, read-out: Ki (nM) hNPY-5): 138 nM; Ki (human Y1 receptor): > 100000 nM; Ki (human Y4 receptor): > 100000 nM; Ki (human Y2 receptor): > 100000 nM
4 | Cc1nc(-c2csc(N[C@H]3CC[C@H](CNS(=O)(=O)N(C)C)CC3)n2)c(C)s1 [Example 98, trans-N′-[(4-[4-(2,5-dimethyl-1,3-thiazol-4-yl)-1,3-thiazol-2-yl]aminocyclohexyl)methyl]-N,N-dimethylsulfamide] | 3.98 |  | Ki (human Y5 receptor [1]; Table 5, read-out: Ki, nM hNPY-5): 1.5 nM
5 | CS(=O)(=O)NC[C@H]1CC[C@H](Nc2nc3c(s2)CCSc2ccccc2-3)CC1 [Example 104, N-{[4-(4,5-Dihydrobenzo[2,3]thiepino[4,5-d][1,3]thiazol-2-ylamino)cyclohexyl]methyl}-methanesulfonamide] | 2.51 | 6.8 | 
6 | O=S(=O)(NC[C@H]1CC[C@H](Nc2nc3c(s2)CCSc2ccccc2-3)CC1)c1cccc2cccnc12 [Example 157, N8-{[4-(4,5-Dihydrobenzo[2,3]thiepino[4,5-d][1,3]thiazol-2-ylamino)cyclohexyl]methyl}-8-quinolinesulfonamide] | 20 | 5.7 | 
